Reference: PMC5314759 (2016)

What was measured:
[1] = system: poly[d(A-T)2] (DNA, polymer) AT; assay: UV thermal melting; conditions: compound concentration not given here; no significant stabilization
[2] = system: poly[d(G-C)2] (DNA, polymer) GC; assay: ethidium bromide fluorescence displacement; conditions: apparent; ethidium bromide displaced; Kapp = Kb × 12.6/C50; over 5 h
[3] = system: poly[d(A-T)2] (DNA, polymer) AT; assay: ethidium bromide fluorescence displacement; conditions: apparent; ethidium bromide displaced; Kapp = Kb × 12.6/C50; over 5 h
[4] = system: poly[d(G-C)2] (DNA, polymer) GC; assay: UV thermal melting; conditions: compound concentration not given here; no significant stabilization

| ΔTM [1] [°C] | Kapp [2] | Kapp [3] | ΔTM [4] [°C] | SMILES |
| --- | --- | --- | --- | --- |
| −0.17 ± 0.25 | 3.5 × 10^7 M(bp)^-1 | 3.63 × 10^6 M(bp)^-1 | 0.36 ± 0.17 | COC1=CC=C2[C@H]3Cc4ccc(OCc5c(C)c(COc6ccc7c8c6O[C@H]6C(OC)=CC=C9[C@@H](C7)N(C)CC[C@]986)c(C)c(COc6ccc7c8c6O[C@H]6C(OC)=CC=C9[C@@H](C7)N(C)CC[C@]986)c5C)c5c4[C@@]2(CCN3C)[C@H]1O5 |
| 0.73 ± 0.18 | 1.15 × 10^7 M(bp)^-1 | 9.1 × 10^6 M(bp)^-1 | 1.72 ± 0.61 | CO[C@H]1C=C[C@H]2[C@H]3Cc4ccc(OCc5c(C)c(COc6ccc7c8c6O[C@H]6[C@@H](OC)C=C[C@H]9[C@@H](C7)N(C)CC[C@@]896)c(C)c(COc6ccc7c8c6O[C@H]6[C@@H](OC)C=C[C@H]9[C@@H](C7)N(C)CC[C@@]896)c5C)c5c4[C@@]2(CCN3C)[C@H]1O5 |
| 0.38 ± 0.71 | 2.69 × 10^5 M(bp)^-1 | 3.03 × 10^5 M(bp)^-1 | 2.63 ± 0.58 | Cc1c(COc2ccc3c4c2O[C@H]2[C@@H](O)C=C[C@H]5[C@@H](C3)N(C)CC[C@@]452)c(C)c(COc2ccc3c4c2O[C@H]2[C@@H](O)C=C[C@H]5[C@@H](C3)N(C)CC[C@@]452)c(C)c1COc1ccc2c3c1O[C@H]1[C@@H](O)C=C[C@H]4[C@@H](C2)N(C)CC[C@@]341 |
